Source: patent US20110009597A1, “RECOMBINANT GANODERMA LUCIDIUM IMMUNOMODULATORY PROTEIN (rLZ-8) AND USES THEREOF” (priority 2008, published 2011)

Tests used:
WBC [1] = experiment: WBC numbers in H22 tumor-bearing mice; conditions: CTX 20 mg·kg^−1
Experimental: (§1) Mice, weight 18-22g, males and females were divided equally, from Jilin University Laboratory Animal Center. Mouse hepatoma cell strain H22, offered by our laboratory. Cyclophosphamide (CTX), offered by Jiangsu Hengrui Medicine Co., Ltd., lot number: 06101921.
(§2) H22 hepatoma cells experiment group were divided into normal control group, negative control group, positive control group, rLZ-8 low-dose treatment group (0.25 mg·kg^−1), rLZ-8 medium-dose treatment group (0.5 mg·kg^−1), rLZ-8 high-dose treatment group (1 mg·kg^−1). For each group 10 mice.
H22 subcutaneous tumor tumor inhibition experiment methods: Select well-growing 1-122 cells, dilute appropriately with sterile saline into a tumor cell suspension, cell counts for 10^7·L^−1, under the right armpit of each mouse inoculated subcutaneously 0.2 ml (except for the normal control group). Treatment after 24 h of vaccination. […] Kill all the mice the next day of drug withdrawal at cervical dislocation, dissected anatomically and took out the tumors, weigh tumors, calculated the inhibition rate using the following equation: […]

[2] = test system: Mouse hepatoma cell strain H22; experiment: H22 subcutaneous tumor inhibition experiment; assay type: in vivo, Mice; conditions: CTX 20 mg·kg^−1 intraperitoneal
Experimental: as §1, §2
H22 subcutaneous tumor tumor inhibition experiment methods: Select well-growing 1-122 cells, dilute appropriately with sterile saline into a tumor cell suspension, cell counts for 10^7·L^−1, under the right armpit of each mouse inoculated subcutaneously 0.2 ml (except for the normal control group). Treatment after 24 h of vaccination. Normal control group and negative control group were given saline 0.2 ml·each^−1·d^−1, intraperitoneal injection; positive control group were given cyclophosphamide 20 mg·kg^−1, 0.2 ml·each^−1·d^−1, intraperitoneal injection. rLZ-8 treatment groups were given doses of tail venous injection respectively, 0.2 ml·each^−1·d^−1, in 10 consecutive days. Draw blood from orbital venous plexus 10 days before and after medication respectively, sent to Jilin University No. 1 Hospital clinical laboratory to test and analyze the number of WBC. Kill all the mice the next day of drug withdrawal at cervical dislocation, dissected anatomically and took out the tumors, weigh tumors, calculated the inhibition rate using the following equation:
Inhibition rate (%)=(average tumore weight of the control group−average tumor weight of the experiment group)/average tumor weight of the control group×100%

WBC [3] = experiment: Number of leukocytes in S180 tumor-bearing mice; conditions: CTX 20 mg·kg^−1
Experimental: (§3) Mice, 18-22 g, males and females were equally divided, provided by Jilin University Laboratory Animal Center; Mice Ehrlich ascites cells strain, provided by our laboratory S180; Cyclophosphamide (CTX), offered by Jiangsu Hengrui Medicine Co., Ltd., lot number: 06101921. S180 ascites tumors and solid tumors in experiment group were divided into normal control group, negative control group, positive control group, rLZ-8 low-dose treatment group (0.25 mg·kg^−1), rLZ-8 medium-dose treatment group (0.5 mg·kg^−1), rLZ-8 high-dose treatment group (1 mg·kg^−1). For each group 10 mice.
Select well-growing S180 cells, dilute appropriately with sterile saline into a tumor cell suspension, cell counts for 10^7·L^−1, under the right armpit of each mouse inoculated subcutaneously 0.2 ml (except for the normal control group). Treatment after 24 h of vaccination. Normal control group and negative control group were given saline 0.2 ml·each^−l·d^−1, intraperitoneal injection; positive control group were given cyclophosphamide 20 mg·kg^−1, intraperitoneal injection. rLZ-8 treatment groups were given doses of tail venous injection respectively, 0.2 ml·each^−1·d^−1, in 10 consecutive days. Draw blood from orbital venous plexus 10 days before and after medication respectively, sent to Jilin University No. 1 Hospital clinical laboratory to test and analyze the number of WBC. […]

S180 cells = experiment: Mouse transplanted S180 subcutaneous tumor inhibition; assay type: in vivo, Mice; conditions: CTX 20 mg·kg^−1 intraperitoneal
Experimental: as §3
Select well-growing S180 cells, dilute appropriately with sterile saline into a tumor cell suspension, cell counts for 10^7·L^−1, under the right armpit of each mouse inoculated subcutaneously 0.2 ml (except for the normal control group). Treatment after 24 h of vaccination. Normal control group and negative control group were given saline 0.2 ml·each^−l·d^−1, intraperitoneal injection; positive control group were given cyclophosphamide 20 mg·kg^−1, intraperitoneal injection. rLZ-8 treatment groups were given doses of tail venous injection respectively, 0.2 ml·each^−1·d^−1, in 10 consecutive days. Draw blood from orbital venous plexus 10 days before and after medication respectively, sent to Jilin University No. 1 Hospital clinical laboratory to test and analyze the number of WBC. Kill all mice the next day of drug withdrawal at cervical dislocation, dissect anatomically and take out the tumors, weigh tumors, calculate the inhibition rate using the following equation:
Inhibition rate (%)=(average tumore weight of the control group−average tumore weight of the experiment group)/average tumor weight of the control group×100%

rabbit chondrocytes = experiment: FITC-rLZ-8 labeling of primary rabbit chondrocytes; assay type: binding; conditions: FITC-rLZ-8 0.25 μg·ml^−1, 1 h, 37° C.
Experimental: Japanese white rabbits (male, 2.5 kg) 4; surgical instruments; 025% trypsogen+0.02% EDTA; 0.2% collagenasell; D-Hanks; IMDM medium ([…], vitamin C, double-antibody); 0.025 mg·ml^−1 Poly-lysine solution; sterile water for injection (WFI).
Fix the experiment animals and execute them with air embolism, skinned abdominal in the middle and exposed the limbs, cutting the muscle fascia with scissors, disconnected the backbone from os longum, remove carefully the entire knee, hip and shoulder bones, with a rough pruning, immersed into D-Hanks. Moved the beaker with tissues into the super-clean units, move the tissues after pruning and cleansing into the 2nd sterile D-Hanks cup; assemble the knife, cutting a thin layer of cartilage off, use curved forceps move into the 6 cm culture incubator, washing with D-Hanks three times, discard majority of D-Hanks, cut the cartilage into 1 mm slices with ophthalmic scissors, discard majority of D-Hanks, spoon removing the broken bone vials into a 10 cm^2 culture flask, mix with trypsogen EDTA for digestion, 37° C., 30 min; replace the trypsogen for collagenase, put it into the hatching incubator of 37° C., taking out and shaking 5 min every 1 h, with 4-4.5 h, finish digestion. Prepare it to the cell suspension solution and mix 3 ml IMDM containing FBS 15%, 5×10^4·ml^−1 vaccinated into the culture flask. […]

rat myocardial tissues = experiment: FITC-rLZ-8 labeling of rat myocardial tissues; assay type: binding; conditions: FITC-rLZ-8 100 ng·ml^−1, 1 h, 37° C.
Experimental: Leica CM1850 frozen slicer; wistar rat; fluorescence microscope 80i (Nikon); isotonic PBS buffer (pH7.2); fetal bovine serum (FBS, Gibco); FITC-rLZ-8 is prepared by our laboratory. Cut the rats at neck and kill them, and strip the hearts, put them to frozen microtome till the temperature dropped to −20° C. for slicing, hatching for 1 h at 37° C. when the myocaridial and PBS preparation of FITC-rLZ-8 solution (100 ng·ml^−1), observing under fluorescence microscope to observe, and establish a blank control group.

HL-60 cells = experiment: FITC-rLZ-8 labeling of HL-60 cells; assay type: binding
Experimental: Fluorescence microscope 80i (Nikon), IMDM cell culture medium (Hyclone), fetal bovine serum (FBS, Gibco), FITC-rLZ-8 and isotonic PBS buffer (pH7.2) Prepared by our laboratory.
Vaccinated the HL-60 by 2×106 inoculation on 24-hole plate, each hole 0.5 ml, with IMDM (2% FBS) culture medium prepared FITC-rLZ-8 for 100 ng·ml^−1, each hole 0.5 ml hatching (37° C.), establish a control group, experiment group 1 h and experiment group 6 h, draw the cells respectively from 1 h and 6 h, mixing into 1.5 ml EP tube, 1000 r·min^−1 centrifuge, clear the supernatant, wash with PBS 3 times, re-suspend after washing.

O=P1(N(CCCl)CCCl)NCCCO1 (stereo not shown) [CTX, Cyclophosphamide, reference compound]
WBC numbers, 10th day of medication (WBC [1]): 4.49 ± 0.21 | Inhibition rate (%) [2]: 62.5% | Tumor weight [2]: 0.45 ± 0.02 g | Number of leukocytes, 10th day of medication (WBC [3]): 4.41 ± 0.25 | Inhibition rate (%) (S180 cells): 65.3% | Tumor weight (S180 cells): 0.35 ± 0.02 g

B1: FITC-rLZ-8: rLZ-8 labelled with Fluorescein-5-Isothiocyanate (FITC) (conjugate, UniProt P14945 2-111, looked up)
Immunomodulatory protein Ling …: SDTALIFRLAWDVKKLSFDYTPNWGRGNPNNFIDTVTFPKVLTDKAYTYRVAVSGRNLGVKPSYAVESDGSQKVNFLEYNSGYGIADTNTIQVFVVDPDTNNDFIIAQWN
modifications: FITC label
fluorescence of rabbit chondrocytes (rabbit chondrocytes): without green fluorescence | fluorescence of myocardial tissues (rat myocardial tissues): without visible fluorescence | cell appearance of HL-60 (HL-60 cells; FITC-rLZ-8 100 ng·ml^−1, group 6 h): agglutination of cells | fluorescence of HL-60 cells (HL-60 cells; FITC-rLZ-8 100 ng·ml^−1, incubation of 1 h and 6 h): strong green fluorescence
